Source: article PMC7485140 (Clinical Pharmacology and Therapeutics, 2020)
Read-outs that look alike come from different tables or passages of the source. Starred links: 1 amine or outer side, 2 acyl side, 3 side chain; linkers in the order of their positions; H or OH if unused. Positions of bridges follow the written chain, without caps; N, C: chain ends. Non-standard residues stand in square brackets, D forms with d. Residues, ends and D or L forms follow the SMILES beside them. *: point of attachment. pTerphenylCO(4''-OnC5H11) = CCCCCOc1ccc(-c2ccc(-c3ccc(C(=O)*)cc3)cc2)cc1; Orn(4R-OH,5R-OH) = O=C([C@H](C[C@@H](O)[C@@H](O)N[*:3])N[*:1])[*:2]; hTyr(3S-OH,4S-OH) = N[C@H](C(=O)O)[C@H](O)[C@@H](O)c1ccc(O)cc1; Pro(3S-OH,4S-Me) = C[C@H]1CN[C@H](C(=O)O)[C@H]1O; Hyp = O=C(O)[C@@H]1C[C@@H](O)CN1

Tests used:
[1] = cited from earlier work
[2] = cited from earlier work; remark: listed apart in the source
[3] = Pooled population PK analysis of i.v. anidulafungin; format: in vivo, human; settings: patients aged 1 month to < 2 years, n = 23, i.v. LD/MD 3.0/1.5 mg/kg q.d., weight-corrected, final PK model; for Vd: Vss
[4] = adult patients with serious fungal infections; cited from earlier work
[5] = infant patients at high risk for invasive fungal infections
[6] = neonatal patients at high risk for invasive fungal infections

**Q.** With CCCCCOc1ccc(-c2ccc(-c3ccc(C(=O)N[C@H]4C[C@@H](O)[C@@H](O)NC(=O)[C@@H]5[C@@H](O)[C@@H](C)CN5C(=O)[C@H]([C@@H](C)O)NC(=O)[C@H]([C@H](O)[C@@H](O)c5ccc(O)cc5)NC(=O)[C@@H]5C[C@@H](O)CN5C(=O)[C@H]([C@@H](C)O)NC4=O)cc3)cc2)cc1 [anidulafungin] ({pTerphenylCO(4''-OnC5H11)}-[Orn(4R-OH,5R-OH)]T[Hyp][hTyr(3S-OH,4S-OH)]T[Pro(3S-OH,4S-Me)]; lactam 1-C) as the compound, how does the “mean CL” value [1, 5] read?
**A.** 0.25 mL/min/kg

**Q.** And the “mean Vss” value [1, 5]?
**A.** 0.9 L/kg

**Q.** And the “median AUCss” value [1, 5]?
**A.** 97700 ng·h/mL

**Q.** What about the “mean CL” value [1, 6] of the same compound?
**A.** 0.333 mL/min/kg

**Q.** What about the “mean Vss” value [1, 6] of the same compound?
**A.** 1.7 L/kg

**Q.** What about the “median AUCss” value [1, 6] of the same compound?
**A.** 74900 ng·h/mL

**Q.** What about the “chemical stability in blood” value ([2]; blood at physiologic temperature and pH) of the same compound?
**A.** slow chemical degradation

**Q.** What about the hepatic metabolism [2] of the same compound?
**A.** not metabolized by the liver

**Q.** What about the “renal CL” value ([2]; negligible renal clearance) of the same compound?
**A.** < 1%

**Q.** And the clearance ([3]; human, plasma, iv, CL, Mean (SD), SD)?
**A.** 0.35 mL/min/kg

**Q.** And the Vd ([3]; human, plasma, iv, Mean (SD), SD)?
**A.** 0.77 L/kg

**Q.** And the Vd ([3]; human, plasma, iv, Median (range))?
**A.** 0.75 L/kg

**Q.** And the “CL, Median (range)” value [3]?
**A.** 0.021 (0.006–0.032) L/hour/kg

**Q.** And the “mean CL” value [4]?
**A.** 1.0 L/h
